For this test, the target named is T1, CCR1 (Homo sapiens, UniProt P32246).
T1 construct: the THP-1 cell line, which expresses the endogenous CCR1 receptor; endogenous in cells; host or cells: THP-1 cells (human monocytic line); the text also allows human PBMC or human monocytes
T1 sequence (P32246 1-355): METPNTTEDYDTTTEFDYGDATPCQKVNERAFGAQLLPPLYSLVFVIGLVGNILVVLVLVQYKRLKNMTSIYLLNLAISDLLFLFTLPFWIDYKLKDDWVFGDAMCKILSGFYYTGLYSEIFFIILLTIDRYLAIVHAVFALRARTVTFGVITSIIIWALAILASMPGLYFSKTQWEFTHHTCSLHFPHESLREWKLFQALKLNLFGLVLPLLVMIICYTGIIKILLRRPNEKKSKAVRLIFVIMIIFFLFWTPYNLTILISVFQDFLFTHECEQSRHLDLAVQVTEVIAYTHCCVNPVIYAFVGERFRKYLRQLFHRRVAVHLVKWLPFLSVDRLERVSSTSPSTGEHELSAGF
Put plainly: Antagonism of MIP-1α binding to human THP-1 cells (CCR1 binding). As to the method:
Antagonism of MIP-1α Binding to Human THP-1 Cells
Compounds of the present invention have activity in the antagonism of MIP-1α binding to human THP-1 cells described here.
Millipore filter plates (#MABVN1250) are treated with 100 μl of binding buffer (0.5% bovine serum albumin, 20 mM HEPES buffer and 5 mM magnesium chloride in RPMI 1640 media) for thirty minutes at room temperature. To measure binding, 50 μl of binding buffer, with or without a known concentration of compound, is combined with 50 μl of ^125-I labeled human MIP-1α (to give a final concentration of 50 pM radioligand) and 50 μl of binding buffer containing 5×10^5 cells. Cells used for such binding assays can include the THP-1 cell line, which expresses the endogenous CCR1 receptor, or human peripheral blood mononuclear cells, isolated by Ficoll-Hypaque gradient centrifugation, or human monocytes (Weiner et al., J. Immunol. Methods, 1980, 36, 89). The mixture of compound, cells and radioligand is incubated at room temperature for thirty minutes. Plates are placed onto a vacuum manifold, vacuum applied, and the plates washed three times with binding buffer containing 0.5M NaCl. The plastic skirt is removed from the plate, the plate allowed to air dry, the wells punched out and counted. The percent inhibition of binding is calculated using the total counts obtained in the absence of any competing compound and the background binding determined by addition of 100 nM MIP-1α in place of the test compound.

The mark [1] stands for this setting: 125-I labeled human MIP-1α (50 pM), THP-1 cells expressing endogenous CCR1, room temperature, thirty minutes, read-out: CCR1 Binding Ki (n = 1 unless otherwise noted).

Where two headings read alike, the source gives them in different places.

The Ki is a dissociation constant, usually derived from enzyme kinetics or from competition with a known ligand. In the case of `COc1cc(N2CCC(C(Cn3nc(C(F)(F)F)c(Cl)c3C)NC(=O)[C@@H](C)O)CC2)c(Cl)cc1Cl` (mixture of isomers) [Example 4n, (2R)-N-(2-(4-Chloro-5-methyl-3-(trifluoromethyl)-1H-pyrazol-1-yl)-1-(1-(2,4-dichloro-5-methoxyphenyl)piperidin-4-yl)ethyl)-2-hydroxypropanamide], the Ki under setting [1] came to 3.46 ± 0.48 nM.
Still for that read-out and setting: the value for `COc1cc(N2CCC(C(O)Cn3nc(N)c4cccnc43)CC2)ccc1Cl` (racemic) [Example 2c, 2-(3-Amino-1H-pyrazolo[3,4-b]pyridin-1-yl)-1-(1-(4-chloro-3-methoxyphenyl)piperidin-4-yl)ethanol] was roughly 2220 nM.
As to `COc1cc(N2CCC(C(O)Cn3nc(C(F)(F)F)nc3C)CC2)ccc1Cl` (racemic) [Example 2h, 1-(1-(4-Chloro-3-methoxyphenyl)piperidin-4-yl)-2-(5-methyl-3-(trifluoromethyl)-1H-1,2,4-triazol-1-yl)ethanol], the inhibition constant (Ki) under setting [1] worked out at 156 nM.
As for `COc1cc(N2CCC(C(N)Cn3nc(C(F)(F)F)c(Cl)c3C)CC2)c(Cl)cc1Cl` (racemic) [Example 4a, 2-(4-Chloro-5-methyl-3-(trifluoromethyl)-1H-pyrazol-1-yl)-1-(1-(2,4-dichloro-5-methoxyphenyl)piperidin-4-yl)ethanamine], under setting [1], the Ki was 125 nM.
On the same count and under the same terms, the value for `COc1cc(N2CCC(C(Cn3nc(C(F)(F)F)c(Cl)c3C)NC(C)=O)CC2)c(Cl)cc1Cl` (racemic) [Example 4c, N-(2-(4-Chloro-5-methyl-3-(trifluoromethyl)-1H-pyrazol-1-yl)-1-(1-(2,4-dichloro-5-methoxyphenyl)piperidin-4-yl)ethyl)acetamide] was 6.8 nM.
`COc1cc(N2CCC(C(Cn3nc(C(F)(F)F)c(Cl)c3C)NC(=O)CF)CC2)c(Cl)cc1Cl` (racemic) [Example 4p, N-(2-(4-Chloro-5-methyl-3-(trifluoromethyl)-1H-pyrazol-1-yl)-1-(1-(2,4-dichloro-5-methoxyphenyl)piperidin-4-yl)ethyl)-2-fluoroacetamide] yielded a Ki of 4.3 nM.
Consider `COc1cc(N2CCC(C)(C(O)Cn3nc(C(F)(F)F)c(Cl)c3C)CC2)ccc1Cl` (racemic) [Example 11, 1-(1-(4-Chloro-3-methoxyphenyl)-4-methylpiperidin-4-yl)-2-(4-chloro-5-methyl-3-(trifluoromethyl)-1H-pyrazol-1-yl)ethanol], for which, under setting [1], the Ki is roughly 1250 nM.
The same measure, in the same setting: in the case of `COc1cccc(N2CCC(C(O)Cn3nc(C(F)(F)F)c(Cl)c3C)CC2)c1` (racemic) [Example 15b, 2-(4-Chloro-5-methyl-3-(trifluoromethyl)-1H-pyrazol-1-yl)-1-(1-(3-methoxyphenyl)piperidin-4-yl)ethanol] it was 1020 nM; in that of `COc1cc(N2CCC(C(Cn3nc(C(F)(F)F)cc3C)NC(=O)CN)CC2)ccc1Cl` (single isomer, unassigned) [Example 5c, 2-amino-N-(1-(1-(4-chloro-3-methoxyphenyl)piperidin-4-yl)-2-(5-methyl-3-(trifluoromethyl)-1H-pyrazol-1-yl)ethyl)acetamide], 145 nM; in that of `COc1cc(N2CCC(C(Cn3nc(C(F)(F)F)c(Cl)c3C)NC(=O)CO)CC2)c(Cl)cc1Cl` (centres unmarked) [Example 4i, N-(2-(4-Chloro-5-methyl-3-(trifluoromethyl)-1H-pyrazol-1-yl)-1-(1-(2,4-dichloro-5-methoxyphenyl)piperidin-4-yl)ethyl)-2-hydroxyacetamide], 5.15 ± 1.68 nM.
Still for that read-out and setting: in the case of “N-(1-(1-(4-chloro-3-methoxyphenyl)piperidin-4-yl)-2-(5-methyl-3-(trifluoromethyl)-1H-pyrazol-1-yl)ethyl)-2-hydroxyacetamide [Example 5b]” it was roughly 2200 nM.

Values taken from patent US8354432B2, “Cyclic derivatives as modulators of chemokine receptor activity” (Bristol-Myers Squibb Company, priority 2006, dated 2013).
